Source: patent publication US9676715B2, “Bis-indolic derivatives, a process for preparing the same and their uses as a drug” (UNIVERSITE JOSEPH FOURIER, priority 2011, dated 2017)
In brackets after ≈: the same amount, converted by molar mass.

What was measured:
[1] = tested on: KB (human mouth carcinoma); experiment: In vitro cytotoxicity; assay type: cell-based; details: read-out: % of cellular growth inhibition; for inhibition at 10 µM: 10^−5 M; for inhibition at 1 µM: 10^−6 M
Method: (§1) In vitro cytotoxicity was assayed on three cell lines—KB (human mouth carcinoma), MCR5 (human lung fibroblast) and HCT116 (human colon tumor). Results are presented in table IV as % of cellular growth inhibition in presence of 10^−5 M and 10^−6 M of the tested bis-indolic derivatives.

[2] = tested on: MRC5 (human lung fibroblast); experiment: In vitro cytotoxicity; assay type: cell-based; details: read-out: % of cellular growth inhibition; for inhibition at 10 µM: 10^−5 M; for inhibition at 1 µM: 10^−6 M
Method: as §1

[3] = tested on: HCT116 (human colon tumor); experiment: In vitro cytotoxicity; assay type: cell-based; details: read-out: % of cellular growth inhibition; for inhibition at 10 µM: HCT-116, 10^−5 M; for inhibition at 1 µM: HCT-116, 10^−6 M
Method: as §1

[4] = tested on: Pseudomonas aeruginosa CIP 5933; experiment: MIC, microdilution method (9.1); assay type: cell-based; details: CIP5933, 18 h, read-out: MIC
Summary of the method: (§2)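 Broth microdilution per CLSI M07-A8 in Mueller Hinton broth, final inoculum 5×10^5 CFU/ml. Indolic compounds tested as two-fold serial dilutions, 0.50-128 mg/L final. Plates incubated at 37° C. in ambient air; fastidious species received 10% sheep blood and 5% CO2.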

[5] = tested on: Klebsiella pneumoniae API ATCC 35657; experiment: MIC, microdilution method (9.1); assay type: cell-based; details: ATCC35657, 18 h, read-out: MIC
Summary of the method: as §2

[6] = tested on: Serratia marcescens CIP 103551; experiment: MIC, microdilution method (9.1); assay type: cell-based; details: CIP103551, 18 h
Summary of the method: as §2

[7] = tested on: Escherichia coli ATCC 25922; experiment: MIC, microdilution method (9.1); assay type: cell-based; details: ATCC25922, 18 h
Summary of the method: as §2

[8] = tested on: Acinetobacter baumanii ATCC 19606; experiment: MIC, microdilution method (9.1); assay type: cell-based; details: Acinetobacter baumannii, ATCC19606, 18 h, read-out: MIC
Summary of the method: as §2

[9] = tested on: Enterobacter cloacae ATCC13047; experiment: MIC, microdilution method (9.1); assay type: cell-based; details: 18 h
Summary of the method: as §2

[10] = tested on: S. epidermidis CIP 81.55; experiment: MIC, microdilution method (9.1); assay type: cell-based, Staphylococcus epidermidis; details: Staphylococcus epidermidis, CIP81, read after 18 h, read-out: MIC
Summary of the method: as §2

[11] = tested on: S. epidermidis CIP 103627; experiment: MIC, microdilution method (9.1); assay type: cell-based, Staphylococcus epidermidis; details: Staphylococcus epidermidis, CIP103627, read after 18 h, read-out: MIC
Summary of the method: as §2

[12] = tested on: S. epidermidis ATCC 12228; experiment: MIC, microdilution method (9.1); assay type: cell-based, Staphylococcus epidermidis; details: Staphylococcus epidermidis, ATCC12228, read after 18 h, read-out: MIC
Summary of the method: as §2

[13] = tested on: S. aureus SA-1199B; experiment: MIC, microdilution method (9.1); assay type: cell-based, Staphylococcus aureus; details: Staphylococcus aureus, SA1199B, 18 h
Summary of the method: as §2

[14] = tested on: S. aureus ATCC 9144; experiment: MIC, microdilution method (9.1); assay type: cell-based, Staphylococcus aureus; details: Staphylococcus aureus, ATCC9144, read after 18 h, read-out: MIC
Summary of the method: as §2

[15] = tested on: S. aureus ATCC 33592 (MRSA); experiment: MIC, microdilution method (9.1); assay type: cell-based, Staphylococcus aureus; details: Staphylococcus aureus, read after 18 h, read-out: MIC
Summary of the method: as §2

[16] = tested on: S. aureus CIP 65.25 (MRSA); experiment: MIC, microdilution method (9.1); assay type: cell-based, Staphylococcus aureus; details: Staphylococcus aureus, read after 18 h, read-out: MIC
Summary of the method: as §2

[17] = tested on: S. aureus CIP 103428; experiment: MIC, microdilution method (9.1); assay type: cell-based, Staphylococcus aureus; details: Staphylococcus aureus, CIP103428, read after 18 h, read-out: MIC
Summary of the method: as §2

[18] = tested on: S. aureus ATCC 25923; experiment: MIC, microdilution method (9.1); assay type: cell-based, Staphylococcus aureus; details: Staphylococcus aureus, ATCC25923, read after 18 h, read-out: MIC
Summary of the method: as §2

[19] = tested on: HCT116 (human colon tumor); experiment: In vitro cytotoxicity; assay type: cell-based; details: HCT-116, HCT116, from 100 μM to 0.005 μM in DMSO, duplicate
[20] = tested on: S. pyogenes (group A) CIP 104226; experiment: MIC, microdilution method (9.1); assay type: cell-based, Streptococcus pyogenes; details: Streptococcus pyogenes, CIP104226, 18 h, read-out: MIC
Summary of the method: as §2

[21] = tested on: S. pneumoniae ATCC 49619; experiment: MIC, microdilution method (9.1); assay type: cell-based; details: Streptococcus pneumoniae, ATCC49619, 10% sheep blood, 5% CO2, 18 h
Summary of the method: as §2

[22] = tested on: Listeria innocua CIP 80.11; experiment: MIC, microdilution method (9.1); assay type: cell-based; details: CIP80, 18 h, read-out: MIC
Summary of the method: as §2

[23] = tested on: Bacillus subtilis CIP 5262; experiment: MIC, microdilution method (9.1); assay type: cell-based; details: CIP5262, 18 h, read-out: MIC
Summary of the method: as §2

[24] = tested on: Haemophilus influenzae ATCC 49766; experiment: MIC, microdilution method (9.1); assay type: cell-based; details: ATCC49766; Haemophilus influenzae ATCC 49766; 10% sheep blood, 5% CO2; 18 h; read-out: MIC
Summary of the method: as §2

[25] = tested on: S. pneumoniae ATCC 6303; experiment: MIC, microdilution method (9.1); assay type: cell-based, Streptococcus pneumoniae; details: Streptococcus pneumoniae, ATCC6303, 10% sheep blood, 5% CO2, 18 h, read-out: MIC
Summary of the method: as §2

[26] = tested on: E. faecium CIP 54.32; experiment: MIC, microdilution method (9.1); assay type: cell-based, Enterococcus faecium; details: Enterococcus faecium, CIP54, 18 h, read-out: MIC
Summary of the method: as §2

[27] = tested on: S. agalactiae (group B) ATCC 12400; experiment: MIC, microdilution method (9.1); assay type: cell-based, Streptococcus agalactiae; details: Streptococcus agalactiae, ATCC12400, 18 h, read-out: MIC
Summary of the method: as §2

| SMILES | inhibition at 10 µM [1] [%] | inhibition at 1 µM [1] [%] | inhibition at 10 µM [2] [%] | inhibition at 1 µM [2] [%] | MIC [4] [µg/mL] | MIC [5] [µg/mL] | MIC [6] [µg/mL] | MIC [7] [µg/mL] | MIC [8] [µg/mL] | MIC [9] [µg/mL] | MIC [10] [µg/mL] | MIC [11] [µg/mL] | MIC [12] [µg/mL] | MIC [14] [µg/mL] | MIC [15] [µg/mL] | MIC [16] [µg/mL] | MIC [17] [µg/mL] | MIC [18] [µg/mL] | IC50 ([19]; first value) [µM] | IC50 ([19]; second value) [µM] | also measured |
| --- | --- | --- | --- | --- | --- | --- | --- | --- | --- | --- | --- | --- | --- | --- | --- | --- | --- | --- | --- | --- | --- |
| CC(NC(=O)c1c[nH]c2ccc(Br)cc12)c1c[nH]c2ccc(Br)cc12 (stereo not shown) [Compound 4, 5-Bromo-N-(1-(5-bromo-1H-indol-3-yl)ethyl)-1H-indole-3-carboxamide] | 13 ± 3 | 0 | 36 ± 4 | 7 | > 128 | > 128 | > 128 | > 128 | > 128 | > 128 | 2 (≈ 4.34 µM) | 4 (≈ 8.67 µM) | 2 (≈ 4.34 µM) | 2 (≈ 4.34 µM) | 2 (≈ 4.34 µM) | 2 (≈ 4.34 µM) | 2 (≈ 4.34 µM) | 2 (≈ 4.34 µM) | 6.43 | 10 | inhibition at 10 µM [3]: 12 ± 1%; inhibition at 1 µM [3]: 0%; MIC [13]: 2 µg/mL (≈ 4.34 µM) |
| CC(C)(C)OC(=O)NCC(NC(=O)c1c[nH]c2ccc(Br)cc12)c1c[nH]c2ccc(Br)cc12 (stereo not shown) [Compound 3f, tert-Butyl(2-(5-bromo-1H-indol-3-yl)-2-(5-bromo-1H-indolyl-3-carboxamido)ethyl)carbamate] | 97 ± 1 | 0 | 91 ± 10 | 0 | > 128 | > 128 | > 128 | > 128 | > 128 | > 128 | 2 (≈ 3.47 µM) | 1 (≈ 1.74 µM) | 1 (≈ 1.74 µM) | 1 (≈ 1.74 µM) | 2 (≈ 3.47 µM) | 2 (≈ 3.47 µM) | 1 (≈ 1.74 µM) | 1 (≈ 1.74 µM) | 5.24 | 5.05 | inhibition at 10 µM [3]: 89 ± 9%; inhibition at 1 µM [3]: 0%; MIC [20]: 32 µg/mL (≈ 55.5 µM); MIC [21]: 32 µg/mL (≈ 55.5 µM); MIC [22]: > 128 µg/mL; MIC [23]: 32 µg/mL (≈ 55.5 µM); MIC [24]: 32 µg/mL (≈ 55.5 µM); MIC [25]: 32 µg/mL (≈ 55.5 µM); MIC [13]: 2 µg/mL (≈ 3.47 µM); MIC [26]: > 128 µg/mL; MIC [27]: 32 µg/mL (≈ 55.5 µM) |
| NCCCCNC(=O)C(NC(=O)c1c[nH]c2ccc(Br)cc12)c1c[nH]c2ccc(Br)cc12 (stereo not shown) [Compound 16, N-(2-((4-Aminobutyl)amino)-1-(5-bromo-1H-indol-3-yl)-2-oxoethyl)-5-bromo-1H-indole-3-carboxamide] |  |  |  |  | 32 (≈ 57 µM) | > 32 | > 32 | 16 (≈ 28.5 µM) | > 32 | 16 (≈ 28.5 µM) | 8 (≈ 14.3 µM) | 8 (≈ 14.3 µM) | 8 (≈ 14.3 µM) | 8 (≈ 14.3 µM) | 8 (≈ 14.3 µM) | 8 (≈ 14.3 µM) | 8 (≈ 14.3 µM) | 8 (≈ 14.3 µM) | 52.9 | 42.8 | MIC [20]: > 128 µg/mL; MIC [21]: > 128 µg/mL; MIC [22]: > 128 µg/mL; MIC [23]: > 128 µg/mL; MIC [24]: > 128 µg/mL; MIC [25]: > 128 µg/mL; MIC [26]: > 128 µg/mL; MIC [27]: > 128 µg/mL |
| Cn1cc(C(=O)NC(CNC(=O)OC(C)(C)C)c2c[nH]c3ccc(Br)cc23)c2cc(Br)ccc21 (stereo not shown) [Compound 7, tert-Butyl (2-(5-bromo-1-methyl-1H-indole-3-carboxamido)-2-(5-bromo-1H-indol-3-yl)ethyl) carbamate] | 52 ± 2 | 2 | 23 ± 6 | 12 | > 128 | > 128 | > 128 | > 128 | > 128 | > 128 | > 128 | > 128 | > 128 | > 128 | > 128 | > 128 | > 128 | > 128 | 10.1 | 13.1 | inhibition at 10 µM [3]: 35 ± 3%; inhibition at 1 µM [3]: 8%; MIC [20]: > 128 µg/mL; MIC [21]: > 128 µg/mL; MIC [22]: > 128 µg/mL; MIC [23]: > 128 µg/mL; MIC [24]: > 128 µg/mL; MIC [25]: > 128 µg/mL; MIC [13]: > 128 µg/mL; MIC [26]: > 128 µg/mL; MIC [27]: > 128 µg/mL |
